Assay results reported in patent US11066399B2, “Ferroportin inhibitors” (Vifor (International) AG, priority 2015, dated 2021).
Marks after values point to notes of the source that are not given here.

Tests used:
[1] = system: Hbb th3/+ mice; test: Improvement of anemia, ineffective erythropoiesis and iron overload in a mouse model of β-thalassemia intermedia; format: in vivo; details: % change to vehicle; for Decrease in serum iron: dosed for 3 h
Procedure: The efficacy of Fpn inhibitors was investigated using a mouse model of transfusion-independent β-thalassemia. Mice with heterozygous deletion of β1 and β2 globin genes (called Hbb th3/+ mice) develop transfusion-independent anemia, ineffective erythropoiesis, splenomegaly and secondary iron overload in spleen, liver and kidneys. […] Hbb th3/+ mice were dosed twice daily with either compound at 20 or 60 mg/kg or with methylcellulose (10 ml/kg, Sigma, Cat. 274429) as a vehicle. Between both doses mice had access to drinking water supplemented with 1 mM ^58Fe(II)-sulfate (Vifor Pharma, Batch No. ROR 3096) and 10 mM ascorbic acid (Sigma, Cat. 795437) for 6 h. […] Water without ^58Fe(II)-Sulfate and ascorbic acid was provided during the remaining 18 h. Dosing of Fpn inhibitors or vehicle followed by exposure to iron-containing water was repeated for 20 to 46 days in individual experiments.
Additional hematologic parameters were measured in terminal blood using automated blood cell analyzer.
The inefficient erythropoiesis of Hbb th3/+ mice causes excessive proliferation of erythroid precursors in spleen, leading to splenomegaly.
Erythroferrone is produced by erythrocyte precursors proliferating massively in spleens of Hbb th3/+ mice as a consequence of extramedullar erythropoiesis.
Increased iron demand due to inefficient erythropoiesis and chronically low hepcidin levels in patients with thalassemia causes organ iron loading and associated morbidities, such as hepatocellular carcinoma and heart failure (Rivella S. Haematologica, 2015). Hbb th3/+ mice absorb excessive amounts of iron as a consequence of inadequately low hepcidin levels relative to the high iron content in liver, spleen and kidney and increased ferroportin expression in duodenum (Gardenghi S., Blood, 2007).
Additionally, reactive oxygen species (ROS) were detected in bone marrow cells using a fluorescent indicator, CM-H2DCFDA (Thermo Fisher Scientific, Cat. C6827).
Table 10. Efficacy of Ferroportin inhibitors in a mouse model of thalassemia intermedia (Hbb th3/+ mice). […] Data are expressed as difference to the vehicle control group for hemoglobin and as % change to the vehicle control group for all other parameter shown

[2] = system: b2m−/− mice; test: Correction of hyperferremia in beta2-microglobulin deficient mice; format: in vivo, mouse; details: male b2m−/− mice, Dose 20 mg/kg oral, blood collected 1 (#) hour after dosing
Procedure: Female and male homozygous b2m−/− mice were supplied from Jackson Laboratories (B6.129P2-B2mtm1Unc/J, Stock Number: 002087) at age of 6 to 7 weeks and fed standard diet (Harlan Provimi Kliba 3436) ad libitum. Age and gender matched WT C57BL/6 mice are supplied by Charles River. To study the acute effects of ferroportin (Fpn) inhibitors in iron overload b2m−/− mice were treated with compounds or the corresponding amount of vehicle at a volume of 10 ml/kg body weight. Fpn inhibitor compounds were formulated in 0.5% methylcellulose/water or 20% cremophor EL/water and dosed p.o. in mice at 50 mg/kg body weight. WT controls received only vehicle. Three hours later, mice were pre-terminally anesthetized in isoflurane chambers and blood was collected by retro-orbital bleeding. Mice were sacrificed by cervical dislocation and spleens, livers and duodena were harvested and used for biomarker analysis. All experiments have been performed in compliance with license approved by the responsible veterinarian authorities. Serum was isolated by centrifugation of blood into gel-containing microtainers (BD Biosciences) and serum iron was determined by the MULTIGENT Iron assay (Abbott Diagnostics, Cat. 6K95). Four to nine mice per group were used and one-way ANOVA with Bonferroni's multiple comparison test was applied to analyze the statistical differences between the experimental groups.
Blood was collected 1 (#) or 3 (##) hours after oral administration of the indicated doses of Fpn inhibitors to beta2-microglobulin deficient mice and serum iron concentrations were measured. Relative reduction (%) of serum iron levels are shown, which were calculated by subtracting the average of serum iron values of animals dosed with the Fpn inhibitor from that of vehicle-treated animals. The difference in average serum iron values between vehicle and compound treated groups was then divided by the average of serum iron of the vehicle control group and listed as percentage.

[3] = system: naïve WT C57BL/6 mice; test: Hypoferremia in naïve mice; format: in vivo, mouse; details: Mus musculus, po, 3 h, read-out: Serum Iron Reduction at 3 h (%)
Procedure: Female C57BL/6 mice (Janvier, France) at age of 9 weeks were fed a standard diet (Harlan Provimi Kliba 3436) and treated per os (p.o.) with compounds or the corresponding amount of vehicle at a volume of 10 ml/kg body weight. Fpn inhibitors were formulated in 0.5% methylcellulose/water or 20% cremophor EL/water and dosed p.o. in mice at 10, 30 or 100 mg/kg body weight. Three hours later, mice were pre-terminally anesthetized in isoflurane chambers and blood was collected by retro-orbital bleeding. Mice were sacrificed by cervical dislocation and spleens, livers and duodena were harvested and used for biomarker analysis. All experiments have been conducted in compliance with the license approved by the responsible veterinarian authorities. Serum was isolated by centrifugation of blood into gel-containing microtainers and serum iron was determined by the MULTIGENT Iron assay (Abbott Diagnostics, 6K95). Eight mice per group were used and one-way ANOVA with Bonferroni's multiple comparison test was performed to analyze the statistical differences between the experimental groups.
Relative serum iron reduction at 3 h after dosing was calculated by subtracting the average of serum iron values of animals dosed with the Fpn inhibitor from that of vehicle-treated animals. The difference in average serum iron values between vehicle and compound treated groups was then divided by the average of serum iron of the vehicle control group and listed as percentage.

| SMILES | Decrease in serum erythropoietin ([1]; 20 mg/kg twice daily for 20-46 days) | Decrease in serum iron ([1]; 20 mg/kg) | Decrease in serum iron ([1]; 60 mg/kg) | Serum Iron Reduction (%) [2] | inhibition in vivo at 10 mg/kg [3] | inhibition in vivo at 30 mg/kg [3] | inhibition in vivo at 100 mg/kg [3] |
| --- | --- | --- | --- | --- | --- | --- | --- |
| O=C(NCc1ncccc1F)c1csc(CCNCc2nc3ccccc3[nH]2)n1 [Example 40] | 6% | 28% | 58% | 35** % |  |  |  |
| O=C(NCc1ncccc1F)c1cnn(CCNCCc2cc3ccccc3[nH]2)c1 [Example 277] |  |  |  |  | 6% | 21% | 54% |
